Data reported in BindingDB's records for doi:10.1021/jm970200u (Northwestern University, 1997).
Where a SMILES comes first, the peptide text is derived from it. [ ]: non-standard residue; d: D form. The star is where a group is joined. dArg(NO2) = N=C(NCCC[C@@H](N)C(=O)O)N[N+](=O)[O-]; Arg(NO2) = N=C(NCCC[C@H](N)C(=O)O)N[N+](=O)[O-]; OBn = c1ccc(CO*)cc1

Assay: Inhibition of Neuronal Nitric oxide synthase enzyme (nNOS)

Row | Structure (SMILES) | Ki
1 | COC(=O)[C@@H](Cc1ccccc1)NC(=O)[C@@H](N)CCCN=C(N)N[N+](=O)[O-] | 92 µM
2 | NC(=NCCC[C@H](NC(=O)[C@@H](N)Cc1ccccc1)C(=O)OCc1ccccc1)N[N+](=O)[O-] (H-Phe-[Arg(NO2)]-OBn) | 110 µM
3 | COC(=O)[C@@H](CCCN=C(N)N[N+](=O)[O-])NC(=O)[C@@H](N)Cc1ccccc1 | 90 µM
4 | N=C(NCCC[C@@H](NC(=O)[C@H](N)Cc1ccccc1)C(=O)O)N[N+](=O)[O-] [(2R)-2-{[(2R)-2-amino-3-phenylpropanoyl]amino}-5-{[(Z)-imino(nitroamino)methyl]amino}pentanoic acid] (H-[dF]-[dArg(NO2)]-OH) | 17 µM
5 | COC(=O)[C@@H](CCCN=C(N)N[N+](=O)[O-])NC(=O)[C@H](N)Cc1ccccc1 | 400 µM
6 | NC(=NCCC[C@H](N)C(=O)N[C@@H](Cc1ccccc1)C(=O)O)N[N+](=O)[O-] | 18 µM
7 | COC(=O)[C@H](CCCN=C(N)N[N+](=O)[O-])NC(=O)[C@@H](N)Cc1ccccc1 | 370 µM
8 | NC(=NCCC[C@H](N)C(=O)N[C@@H](Cc1ccccc1)C(=O)OCc1ccccc1)N[N+](=O)[O-] | 55 µM
9 | COC(=O)[C@@H](Cc1ccccc1)NC(=O)[C@H](N)CCCNC(=N)N[N+](=O)[O-] [D-Nitroarginine,methoxy-D-phenylalanine,with 2M of hydrochloric acid] | 150 µM
10 | COC(=O)[C@H](Cc1ccccc1)NC(=O)[C@@H](N)CCCN=C(N)N[N+](=O)[O-] | 290 µM
